Test system: New Zealand white rabbit eyes
Assay: Eye irritation in rabbit eyes (Draize Test)
Format: in vivo
Details: 50 μl of 1% droperidol; slit lamp biomicroscope
Experimental: 50 μl of 1% droperidol was used to test for eye irritation in New Zealand white rabbit eyes using the standard procedure of the Draize Test. […] Eyedrops were instilled in the eyes, and the responses of the eyes were examined with a slit lamp biomicroscope.

Structure (SMILES): O=C(CCCN1CC=C(n2c(=O)[nH]c3ccccc32)CC1)c1ccc(F)cc1 [droperidol, Droperidol]
- Eye irritation: either absent or insignificant

Source: patent US20030069232A1, “Topical treatment of ocular hypertension, glaucoma, ischemic retinopathy and age-related macular degeneration with ophthalmic formulation of dopamine antagonists” (priority 1999, published 2003)
